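Exposure lasted 48 hours, with cells grown in 96-well plates and compounds tested at five concentrations. Abbreviation: GI50, concentration required for 50% inhibition of growth. TGI denotes the concentration required for complete inhibition of growth.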
How the values were obtained:
Assay in all cases: DTP human tumour cell line panel, 48 h; in the data active means GI50 below about 0.43 µM; inactive means the rest
786-0 renal = test system: 786-0 renal
A498 renal = test system: A498 renal
A549 NSCLC = test system: A549 NSCLC
ACHN renal = test system: ACHN renal
CCRF-CEM leukemia = test system: CCRF-CEM leukemia
COLO 205 colon = test system: COLO 205 colon
DU-145 prostate = test system: DU-145 prostate
EKVX NSCLC = test system: EKVX NSCLC
HCC-2998 colon = test system: HCC-2998 colon
HCT-116 colon = test system: HCT-116 colon
HCT-15 colon = test system: HCT-15 colon
HL-60(TB) leukemia = test system: HL-60(TB) leukemia
HOP-62 NSCLC = test system: HOP-62 NSCLC
HOP-92 NSCLC = test system: HOP-92 NSCLC
HS 578T breast = test system: HS 578T breast
HT29 colon = test system: HT29 colon
IGROV1 ovarian = test system: IGROV1 ovarian
K-562 leukemia = test system: K-562 leukemia
KM12 colon = test system: KM12 colon
M14 melanoma = test system: M14 melanoma
MALME-3M melanoma = test system: MALME-3M melanoma
MCF7 breast = test system: MCF7 breast
MDA-MB-231 breast = test system: MDA-MB-231 breast
MDA-MB-435 = test system: MDA-MB-435
MOLT-4 leukemia = test system: MOLT-4 leukemia
NCI-H226 lung = test system: NCI-H226 lung
NCI-H23 lung = test system: NCI-H23 lung
NCI-H460 lung = test system: NCI-H460 lung
NCI/ADR-RES ovarian = test system: NCI/ADR-RES ovarian
OVCAR-4 ovarian = test system: OVCAR-4 ovarian
OVCAR-5 ovarian = test system: OVCAR-5 ovarian
OVCAR-8 ovarian = test system: OVCAR-8 ovarian
RPMI-8226 leukemia = test system: RPMI-8226 leukemia
RXF 393 renal = test system: RXF 393 renal
SF-268 CNS = test system: SF-268 CNS
SF-295 CNS = test system: SF-295 CNS
SF-539 CNS = test system: SF-539 CNS
SK-MEL-28 melanoma = test system: SK-MEL-28 melanoma
SK-MEL-5 melanoma = test system: SK-MEL-5 melanoma
SK-OV-3 ovarian = test system: SK-OV-3 ovarian
SN12C renal = test system: SN12C renal
SNB-19 CNS = test system: SNB-19 CNS
SNB-75 CNS = test system: SNB-75 CNS
SR leukemia = test system: SR leukemia
SW-620 colon = test system: SW-620 colon
T-47D breast = test system: T-47D breast
TK-10 renal = test system: TK-10 renal
U251 CNS = test system: U251 CNS
UACC-257 melanoma = test system: UACC-257 melanoma
UACC-62 melanoma = test system: UACC-62 melanoma
UO-31 renal = test system: UO-31 renal
BT-549 breast = test system: BT-549 breast
CAKI-1 renal = test system: CAKI-1 renal
LOX IMVI melanoma = test system: LOX IMVI melanoma
NCI-H522 lung = test system: NCI-H522 lung
OVCAR-3 ovarian = test system: OVCAR-3 ovarian
PC-3 prostate = test system: PC-3 prostate
SK-MEL-2 melanoma = test system: SK-MEL-2 melanoma

CN(C)c1ccc(-c2[nH]c(=O)c3ccccc3[n+]2C)cc1
> 100 µM: TGI (786-0 renal) | TGI (A498 renal) | TGI (A549 NSCLC) | TGI (ACHN renal) | TGI (CCRF-CEM leukemia) | TGI (COLO 205 colon) | TGI (DU-145 prostate) | TGI (EKVX NSCLC) | TGI (HCC-2998 colon) | TGI (HCT-116 colon) | TGI (HCT-15 colon) | TGI (HL-60(TB) leukemia) | TGI (HOP-62 NSCLC) | TGI (HOP-92 NSCLC) | TGI (HS 578T breast) | TGI (HT29 colon) | TGI (IGROV1 ovarian) | TGI (K-562 leukemia) | TGI (KM12 colon) | TGI (M14 melanoma) | TGI (MALME-3M melanoma) | TGI (MCF7 breast) | TGI (MDA-MB-231 breast) | TGI (MDA-MB-435) | TGI (MOLT-4 leukemia) | TGI (NCI-H226 lung) | TGI (NCI-H23 lung) | TGI (NCI-H460 lung) | TGI (NCI/ADR-RES ovarian) | TGI (OVCAR-4 ovarian) | TGI (OVCAR-5 ovarian) | TGI (OVCAR-8 ovarian) | TGI (RPMI-8226 leukemia) | TGI (RXF 393 renal) | TGI (SF-268 CNS) | TGI (SF-295 CNS) | TGI (SF-539 CNS) | TGI (SK-MEL-28 melanoma) | TGI (SK-MEL-5 melanoma) | TGI (SK-OV-3 ovarian) | TGI (SN12C renal) | TGI (SNB-19 CNS) | TGI (SNB-75 CNS) | TGI (SR leukemia) | TGI (SW-620 colon) | TGI (T-47D breast) | TGI (TK-10 renal) | TGI (U251 CNS) | TGI (UACC-257 melanoma) | TGI (UACC-62 melanoma) | TGI (UO-31 renal)

Cn1nc(-c2cccs2)cc1/N=C(\N)C(C)(C#N)Cc1ccccc1 (configuration not stated)
58.5 µM: TGI (HS 578T breast)
46.5 µM: TGI (RPMI-8226 leukemia)
71.8 µM: TGI (UACC-257 melanoma)
53.3 µM: TGI (LOX IMVI melanoma)
80.7 µM: TGI (NCI-H460 lung)
52.7 µM: TGI (U251 CNS)
49.5 µM: TGI (NCI/ADR-RES ovarian)
48.4 µM: TGI (ACHN renal)
39.4 µM: TGI (MDA-MB-231 breast)
98.7 µM: TGI (OVCAR-8 ovarian)
77.1 µM: TGI (SF-539 CNS)
93.7 µM: TGI (KM12 colon)
75.8 µM: TGI (OVCAR-5 ovarian)
> 100 µM: TGI (786-0 renal) | TGI (BT-549 breast) | TGI (CCRF-CEM leukemia) | TGI (COLO 205 colon) | TGI (DU-145 prostate) | TGI (EKVX NSCLC) | TGI (HCT-116 colon) | TGI (HCT-15 colon) | TGI (HOP-62 NSCLC) | TGI (HOP-92 NSCLC) | TGI (IGROV1 ovarian) | TGI (K-562 leukemia) | TGI (M14 melanoma) | TGI (MCF7 breast) | TGI (MOLT-4 leukemia) | TGI (NCI-H522 lung) | TGI (OVCAR-4 ovarian) | TGI (SF-268 CNS) | TGI (SK-MEL-2 melanoma) | TGI (SK-MEL-28 melanoma) | TGI (SK-OV-3 ovarian) | TGI (SNB-19 CNS) | TGI (SR leukemia) | TGI (SW-620 colon) | TGI (UO-31 renal)
49.6 µM: TGI (UACC-62 melanoma)
90.3 µM: TGI (RXF 393 renal)
75.7 µM: TGI (SF-295 CNS)
62.2 µM: TGI (MDA-MB-435)
64.7 µM: TGI (A498 renal)
inactive: GI50 (786-0 renal) 39.7 µM | GI50 (A498 renal) 32 µM | GI50 (A549 NSCLC) 23.4 µM | GI50 (ACHN renal) 20.7 µM | GI50 (BT-549 breast) 35.4 µM | GI50 (CAKI-1 renal) 22.9 µM | GI50 (CCRF-CEM leukemia) 46.4 µM | GI50 (COLO 205 colon) 39.9 µM | GI50 (DU-145 prostate) 47.6 µM | GI50 (EKVX NSCLC) 47.4 µM | GI50 (HCT-116 colon) 27.2 µM | GI50 (HCT-15 colon) 29.3 µM | GI50 (HL-60(TB) leukemia) 26.5 µM | GI50 (HOP-62 NSCLC) 38.7 µM | GI50 (HOP-92 NSCLC) 32.7 µM | GI50 (HS 578T breast) 18.3 µM | GI50 (IGROV1 ovarian) 54.2 µM | GI50 (K-562 leukemia) 33.3 µM | GI50 (KM12 colon) 29 µM | GI50 (LOX IMVI melanoma) 23.3 µM | GI50 (M14 melanoma) 29.9 µM | GI50 (MCF7 breast) 31.5 µM | GI50 (MDA-MB-231 breast) 16.3 µM | GI50 (MDA-MB-435) 25.7 µM | GI50 (MOLT-4 leukemia) 67.1 µM | GI50 (NCI-H226 lung) 20.4 µM | GI50 (NCI-H23 lung) 27.7 µM | GI50 (NCI-H460 lung) 26.7 µM | GI50 (NCI-H522 lung) 56.1 µM | GI50 (NCI/ADR-RES ovarian) 23.7 µM | GI50 (OVCAR-3 ovarian) 21.9 µM | GI50 (OVCAR-4 ovarian) 28.1 µM | GI50 (OVCAR-5 ovarian) 31.6 µM | GI50 (OVCAR-8 ovarian) 37.1 µM | GI50 (PC-3 prostate) 32.4 µM | GI50 (RPMI-8226 leukemia) 15.5 µM | GI50 (RXF 393 renal) 49.3 µM | GI50 (SF-268 CNS) 36.9 µM | GI50 (SF-295 CNS) 26.9 µM | GI50 (SF-539 CNS) 37.6 µM | GI50 (SK-MEL-2 melanoma) 63.7 µM | GI50 (SK-MEL-28 melanoma) 70.3 µM | GI50 (SK-MEL-5 melanoma) 18.4 µM | GI50 (SK-OV-3 ovarian) 44.8 µM | GI50 (SN12C renal) 24.8 µM | GI50 (SNB-19 CNS) 62.7 µM | GI50 (SR leukemia) 45.2 µM | GI50 (SW-620 colon) 34.2 µM | GI50 (TK-10 renal) 27.3 µM | GI50 (U251 CNS) 21.9 µM | GI50 (UACC-257 melanoma) 32 µM | GI50 (UACC-62 melanoma) 22.8 µM | GI50 (UO-31 renal) 44.1 µM
60.8 µM: TGI (CAKI-1 renal)
58.3 µM: TGI (OVCAR-3 ovarian)
53.9 µM: TGI (NCI-H23 lung)
59.5 µM: TGI (HL-60(TB) leukemia)
58.1 µM: TGI (NCI-H226 lung)
91.6 µM: TGI (TK-10 renal)
90.4 µM: TGI (PC-3 prostate)
37.4 µM: TGI (SK-MEL-5 melanoma)
57.1 µM: TGI (A549 NSCLC)
79.3 µM: TGI (SN12C renal)
